Experimental data as given in US11406644B2, “Tropomyosin-related kinase (TRK) inhibitors” (Genzyme Corporation, priority 2013, dated 2022).
Counter-ions that a name gives are not always drawn.

Assays:
TrkB = TrkB (Homo sapiens (Human), UniProt Q16620); experiment: TrkB activity, off-chip mobility shift assay (LabChip 3000); assay type: biochemical; details: 300 pM TrkB, 70 μM ATP (ATP Km)
From the text: (§1) Reagents and consumables were purchased from Sigma Aldrich, Carna Biosciences, or Caliper Life Sciences. All assay reaction conditions for IC50 determinations were within the linear range with respect to time and enzyme concentration. […] The LabChip 3000 separates and measures the fluorescent signal of fluorescein labeled peptide substrate and fluorescein labeled peptide product present in each well. Results are expressed as percent conversion by measuring peak height for both the substrate and product and dividing the product peak height by the sum of peak heights for both substrate and product.

[1] = system: Male Lewis rats with PGPS knee arthritis; experiment: Reactivated peptidoglycan-polysaccharide (PGPS) knee arthritis; assay type: in vivo, rat
From the text: Male Lewis rats were acclimated to the testing facility for 7 days. The rats were housed in 5 per cage in shoe-box polycarbonate cages with wire tops, wood chip bedding and suspended food and water bottles.
On day −21, the male Lewis rats were randomized into treatment groups by body weight. The rats were anesthetized and injected with peptidoglycan-polysaccharide (PGPS) into the right knee to induce PGPS arthritis. Arthritis was reactivated on days 0 and 14 by an IV tail injection of PGPS.
The rats were weighed at baseline on days 0, 4, 14 and 18. Knee thickness was measured by caliper at baseline and on days 0, 2, 4, 14, 16 and 18. Gait analysis occurred on days 0-4 and 14-18, with video recording of selected animals on days 3 and 17. Gait analysis was performed by applying ink to the ventral surface of the foot and documenting weight bearing during movement across paper.
The animals were terminated at day 18. Right knees were removed, trimmed of extraneous tissue, and collected into 10% neutral buffered formalin. After two days in the formalin buffer and three days in 10% formic acid decalcifier, the knees were cut into two approximately equal halves in the frontal plane and processed for paraffin embedding and stained with T. Blue. Histological examinations were subsequently performed for bone resorption, inflammation, pannus and cartilage damage.
Body weights, gait deficiency and caliper measurements were analyzed using a one-way analysis of variance (1-way ANOVA) with Dunnett's multiple comparison post-test. Gait scores were analyzed using a Kruskal-Wallis test (non-parametric ANOVA) with Dunn's multiple comparison post-test. Histopathology scores were analyzed using a Kruskal-Wallis test (non-parametric ANOVA) with Dunn's multiple comparison post-test.

[2] = system: Male Wistar rats with MIA induced osteoarthritis; experiment: Monosodium iodoacetate (MIA) induced osteoarthritis; assay type: in vivo, rat; details: for MIA/LRS placebo group compared with treated group at day 35: p<0.05
From the text: Male Wistar rats were acclimated to the testing facility for 5 days. The rats were individually housed in micro-isolator shoe-box polycarbonate cages with cob bedding and water bottles. Dry pelleted food of known composition and nutritional components was provided ad libitum
Animals were randomized by treatment type using an online random number generator. Each treatment group was assigned a number, entered into the random number generator, recorded then translated back to the associated treatment. All injections were given in the left leg unless the treatment indicated “Contralateral” in which case the injection was given in the right leg. Both legs were shaved on all animals at the time of the treatment injections to blind the test administrator.
The rats were weighed the day prior to injection with monosodium iodoacetate (MIA), the agent used to induce osteoarthritis in the animals. The day of injection, rats from groups 2-8 received a subcutaneous (SC) dose of buprenorphine at least one hour prior to induction. […] Naïve animals were then placed in recovery. All other animals received an injection of MIA. In animals receiving MIA, the hind leg was flexed and an injection of MIA (25 μL) was injected into the intra-articular space using a 27 gauge ½ Inch Needle. Standard postoperative care was performed (twice daily for 48 hours).
On Day 8 the test article was administered as described above. On Days −1, 7, 14, 21, 28, and 35 post-induction, weight bearing was assessed. A weight bearing scale was utilized using a plexiglass chamber to assess the amount of weight distributed in each hind limb. The animals were acclimated to the chamber for at least 5 minutes prior to testing and the weight distribution was recorded 5 times.
The animals were terminated at day 36. Both stifles were collected from each animal; the skin was removed from the joint and the patella was removed while leaving as much of the fat pad intact with the joint. The stifle was placed in the appropriate cassette with rolled gauze to secure the stifle in the cassette and then placed into 4% Paraformaldehyde. These samples were examined histologically.

TrkA = TrkA (Homo sapiens (Human), UniProt P04629); experiment: TrkA activity, off-chip mobility shift assay (LabChip 3000); assay type: biochemical; details: 200 pM TrkA, 55 μM ATP (ATP Km)
Sequence of TrkA (P04629 442-796): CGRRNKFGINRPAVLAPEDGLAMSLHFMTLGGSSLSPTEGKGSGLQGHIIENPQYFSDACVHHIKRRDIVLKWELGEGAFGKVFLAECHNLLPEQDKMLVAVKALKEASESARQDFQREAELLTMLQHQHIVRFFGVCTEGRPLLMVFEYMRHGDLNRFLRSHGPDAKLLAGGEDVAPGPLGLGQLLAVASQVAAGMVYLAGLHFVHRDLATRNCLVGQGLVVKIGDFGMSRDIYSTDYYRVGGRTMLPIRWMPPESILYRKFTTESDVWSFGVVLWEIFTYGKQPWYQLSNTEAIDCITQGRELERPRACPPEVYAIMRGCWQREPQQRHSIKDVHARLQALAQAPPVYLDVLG
From the text: as §1

[3] = 0.06 mg intra-articular on day −7

Sequence of TrkB (Q16620 456-822): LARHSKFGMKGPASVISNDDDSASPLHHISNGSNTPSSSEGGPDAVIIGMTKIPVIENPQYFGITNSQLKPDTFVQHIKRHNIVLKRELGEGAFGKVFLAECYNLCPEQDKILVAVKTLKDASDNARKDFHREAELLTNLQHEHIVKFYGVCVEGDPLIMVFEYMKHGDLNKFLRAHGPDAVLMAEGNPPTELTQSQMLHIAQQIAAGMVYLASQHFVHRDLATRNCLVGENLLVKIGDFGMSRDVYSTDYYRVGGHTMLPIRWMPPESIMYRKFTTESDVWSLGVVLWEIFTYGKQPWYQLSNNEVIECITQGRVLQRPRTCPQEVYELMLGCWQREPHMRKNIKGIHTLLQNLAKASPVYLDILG

COc1ccc(-c2cnc3c(c2)ncn3Cc2ccc(OC(C)c3ccc(OC)nc3)c(OC)c2)cn1 (centres unmarked) [Ex. 3-58-2, 3-(3-methoxy-4-(1-(6-methoxypyridin-3-yl)ethoxy)benzyl)-6-(6-methoxypyridin-3-yl)-3H-imidazo[4,5-b]pyridine formate]
IC50 (TrkB): 610 nM

COc1ccc(COc2ccc(Cn3c(N)nc4cc(-c5cnn(C)c5)cnc43)cc2OC)cc1 [Ex. 3-15, 3-(3-Methoxy-4-((4-methoxybenzyl)oxy)benzyl)-6-(1-methyl-1H-pyrazol-4-yl)-3H-imidazo[4,5-b]pyridin-2-amine]
knee caliper AUC values ([1]; 1 mg intra-articular on day −7): generally unaffected
reduction of gait AUC values (scores and deficiency), first reactivation ([1]; 1 mg intra-articular on day −7): 92-93%
reduction of gait AUC values (scores and deficiency), second reactivation ([1]; 1 mg intra-articular on day −7): 85-86%
knee caliper measurements ([1]; 1 mg intra-articular on day −7, day 14 (just prior to second reactivation)): significantly reduced
reductions in gait deficiency, second reactivation ([1]; 1 mg intra-articular on day −7, days 15, 17 and 18): significant
gait scores and deficiency, first reactivation ([1]; 1 mg intra-articular on day −7, throughout first reactivation): significant reductions
gait scores, second reactivation ([1]; 1 mg intra-articular on day −7, throughout second reactivation): significantly reduced
efficacy (weight bearing) ([2]; 10 μg Contralateral injection): efficacy at 3 and 4 weeks
efficacy (weight bearing) ([2]; 10 μg Ipsilateral injection): efficacy was observed at 2 through 4 weeks
efficacy (weight bearing) ([2]; 30 μg Contralateral injection): efficacy at only the 3 week timepoint
efficacy (weight bearing) ([2]; 30 μg Ipsilateral injection): effective throughout the four weeks following administration
MIA/LRS placebo group compared with treated group at day 35 ([2]; 30 μg Ipsilateral): significantly worse
systemic pain relief (weight bearing) ([2]; 100 μg Contralateral injection, 1-4 weeks): did not show systemic pain relief at any timepoint
efficacy (weight bearing) ([2]; 100 μg Ipsilateral injection): effective throughout the four weeks following administration
MIA/LRS placebo group compared with treated group at day 35 ([2]; 100 μg Ipsilateral): significantly worse
body weight results, adverse observations due to treatment ([2]; intra-articular 10-100 μg on day 8): No adverse observations
histopathology of knee joint, adverse changes ([2]; stifles collected at day 36): no adverse changes

COc1ccc(COc2ccc(Cn3cnc4cc(-c5cnn(C6CCNCC6)c5)ccc43)cc2OC)cn1 [Ex. 3-5]
IC50 (TrkA): 6 nM
IC50 (TrkB): 5 nM

C[C@]12C=CC(=O)C=C1CC[C@H]1[C@@H]3C[C@@H](O)[C@](O)(C(=O)CO)[C@@]3(C)C[C@H](O)[C@@]12F [Triamcinolone, reference compound]
reduction of gait AUC values, each reactivation calculated separately [1, 3]: 74-99%
reduction of gait AUC values, summed [1, 3]: 88-92%
reductions in knee caliper AUC [1, 3]: 53-106%
